Source: patent EP0133550B1, “Process for producing arphamenine in high yield” (MICROBIAL CHEMISTRY RESEARCH FOUNDATION, priority 1983, dated 1985)

Target: T1, aminopeptidase B (Rattus norvegicus, UniProt O09175)
T1 sequence (O09175 1-650): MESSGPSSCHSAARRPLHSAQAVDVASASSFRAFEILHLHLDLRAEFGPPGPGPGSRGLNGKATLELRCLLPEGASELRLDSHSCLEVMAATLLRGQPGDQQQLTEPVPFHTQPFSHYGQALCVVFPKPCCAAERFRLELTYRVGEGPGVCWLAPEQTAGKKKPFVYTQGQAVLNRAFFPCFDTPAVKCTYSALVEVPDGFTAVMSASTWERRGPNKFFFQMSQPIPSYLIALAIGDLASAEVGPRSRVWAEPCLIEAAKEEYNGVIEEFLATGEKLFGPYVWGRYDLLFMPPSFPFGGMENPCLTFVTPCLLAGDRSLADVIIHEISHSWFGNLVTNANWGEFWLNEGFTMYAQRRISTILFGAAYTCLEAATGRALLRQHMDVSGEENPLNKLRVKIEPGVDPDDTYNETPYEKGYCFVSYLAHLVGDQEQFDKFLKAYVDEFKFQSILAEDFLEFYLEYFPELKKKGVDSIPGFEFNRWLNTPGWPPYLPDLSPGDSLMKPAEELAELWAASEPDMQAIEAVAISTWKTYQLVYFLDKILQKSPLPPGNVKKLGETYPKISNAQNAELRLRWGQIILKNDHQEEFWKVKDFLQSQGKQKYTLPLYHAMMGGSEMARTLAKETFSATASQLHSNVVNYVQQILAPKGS
Assay: Inhibition of aminopeptidase B (improved method of Hoppusu et al., arginine-ß-naphthylamide substrate, absorbance at 525 nm)
Format: biochemical
Settings: 0.002 M arginine-ß-naphthylamide, pH 7.0, 30 minutes at 37°C; read-out: IC50 (concentration which inhibited 50% of aminopeptidase B activity) (converted)
Experimental: The amount (potency) of arphamenine was determined by an improved method based on the method of Hoppusu et al. (V.K. HOPPUSU, K.K. MAKINEN & G.G. GLENNER, Archieves of Biochemistry and Biophysics 114, 557,1966). In detail, 0.5 ml of 0.1 M tris-hydrochloric acid buffer solution (pH 7.0) and 0.25 ml of a solution containing the specimen were added to 0.25 ml of 0.002 M arginine-ß-naphthylamide. The resulting mixed solution was heated for 3 minutes at 37°C. To the heated solution was added 5 pl of a solution of aminopeptidase B that had been purified by the use of DEAE-cellulose according to the enzyme- purification technique of Hoppusu et al.
The mixture was reacted for 30 minutes at 37°C, followed by adding to the reaction mixture 1 ml of 1.0 M acetic acid buffer solution (pH 4.2) containing Fast Garnet GBC@ (0-aminoazotoluene diazonium salt) in a concentration of 1 mg/ml and the surfactant Tween 20@ in a concentration of 10%.
The resulting mixture was allowed to stand for 15 minutes at room temperature, and measured for adsorbance (a) at 525 nm. Simultaneously, a blank absorbance (b) was obtained using an arphamenine- free buffer solution only. Percent inhibition of aminopeptidase B was calculated from the equation [(b-a)/b] x 100.

SMILES: N=C(N)NCCCC(N)C(=O)CC(Cc1ccc(O)cc1)C(=O)O (stereo not shown) [arphamenine B]
- IC50: 5.95 nM
